Data reported in the METLIN SMRT retention time set (Domingo-Almenara et al. 2019).

experiment: gradient 5% acetonitrile 3 min, to 50% in 2 min, to 85% in 15 min, held 3 min, 100 µL/min; conditions: column: Zorbax Extend-C18 2.1 x 50 mm; eluents: water / acetonitrile, 0.1% formic acid
Summary of the method: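 Mixtures of ~100 pure standards were chromatographed on a Zorbax Extend-C18 column (2.1 × 50 mm, 1.8 μm) at 100 μL/min using water and acetonitrile, each with 0.1% formic acid. Detection used a quadrupole time-of-flight mass spectrometer in positive and negative ionization mode, and data collection spanned 3 months. Retention time was obtained from adduct peaks picked computationally and each checked manually.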

SMILES | RP-LC retention time
CCn1cc(C(=O)NCc2cccc(C)c2)c2cccnc21 | 812 s
CCOc1ccc(OCC)c(NC(=O)C2=C(C)C(=O)OC23CCCCCC3)c1 | 1250 s
CC(C)NC(=O)c1ccc2c(c1)nc(CN(C)C(=O)Nc1ccc3c(c1)OCCO3)n2C | 616 s
CC1(C)COc2ccc(NC(=O)c3ccc(Br)o3)cc2NC1=O | 824 s
CCN1C(=O)CN(C(=O)C2CC2)CC12CCOCC2 | 584 s
CCOc1ccccc1NC(=O)Cn1cnc2nc(N3CCCC(C(=O)NC4CC4)C3)sc2c1=O (stereo not drawn) | 723 s
O=C(Nc1cccc([N+](=O)[O-])c1)N1CCN(c2ccccc2)CC1 | 829 s
Cc1ccccc1-n1c(=O)c2sccc2n(Cc2nc(-c3cccc(Br)c3)no2)c1=O | 1110 s
CCC(=O)N1CCc2c(C(=O)NC3CCCCC3)cccc21 | 831 s
CCOC(=O)CNC(=O)NC(C(=O)N1CCc2ccccc21)c1ccccc1 (stereo not drawn) | 832 s
CC(C)NC(=O)N(CC(=O)N1CCc2sccc2C1COc1ccccc1)CC1CC1 (stereo not drawn) | 943 s
CCc1nc(-c2csc(S(=O)(=O)N3CCCC(C(=O)N4CCOCC4)C3)c2)no1 (stereo not drawn) | 796 s
COc1cccc(CNC(=O)C2(C)CCCN(C(=O)Nc3cc(Cl)c(OC)cc3OC)C2)c1 (stereo not drawn) | 900 s
O=C(Cc1csc(NC(=O)C2CC2)n1)Nc1ccc(Cl)c(Cl)c1 | 827 s
COc1ccc(OC)c(C2CN(C(=O)c3ccc4c(c3)OCO4)CC2C(=O)N2CCCC2)c1 (stereo not drawn) | 723 s
CC(=O)N1CCCc2cc(S(=O)(=O)N3CCC(C(=O)N4CCc5ccccc5C4)CC3)ccc21 | 843 s
Cc1cc(C(=O)NC2CCc3nnc(C4CC4)n3CC2)c(C)n1Cc1ccco1 (stereo not drawn) | 660 s
CC(C)CC(=O)Nc1ccc(-n2cnc(C(=O)N3CCC4(CC3)OCCO4)c2)nc1 | 677 s
COc1ccc(-c2cc3nn(CC(=O)Nc4c(C)cccc4C)c(=O)n3c(C)n2)cc1 | 909 s
CC(C)(C)c1ccc(C(=O)N(Cc2ccc(Br)o2)C2CCS(=O)(=O)C2)cc1 (stereo not drawn) | 1110 s
CC(C)(C)C(=O)NC1CCN(C(=O)c2ccc(F)cc2)C1 (stereo not drawn) | 688 s
Cc1ccnc(N2CCCC(C(=O)N3CCC(Cc4ccccc4)CC3)C2)n1 (stereo not drawn) | 987 s
Cc1ccc(C(C)NC(=O)c2cn(-c3ccc(NC(=O)CC(C)C)cn3)cn2)cc1 (stereo not drawn) | 872 s
COc1ccc2c(c1)c(N1CCCC1=O)c(C(=O)NCCCN1CC(C)CC(C)C1)n2C (stereo not drawn) | 647 s

SMILES | RP-LC retention time
COc1ccc(C(C)NC(=O)c2cn3cc(C)ccc3n2)cc1 (stereo not drawn) | 671 s
Cc1cc(N2CCCC2)n2ncnc2n1 | 567 s
Cc1csc(-c2cc(S(=O)(=O)N3CCCC3)cn2CC(=O)N2CCCCC2)n1 | 875 s
CN(CC1CCOCC1)S(=O)(=O)c1ccccc1C(F)(F)F | 861 s
Cc1cc(S(=O)(=O)N(C)CC2CCOCC2)ccc1Cl | 963 s
Cc1ccc(-c2nc(Cn3nnc(C(=O)NC4CCCC4)c3C)c(C)o2)cc1 | 1060 s
CCOC(=O)Nc1c(Cl)n(C)c(=O)n(C)c1=O | 648 s
CCc1nc(-c2csc(S(=O)(=O)N3CCCC(C(=O)Nc4ccc5c(c4)OCO5)C3)c2)no1 (stereo not drawn) | 984 s
O=C1N(c2ccccc2)CC12CCN(S(=O)(=O)c1ccccc1)CC2 | 957 s
COC[C@@H]1CN(Cc2c(OC)cccc2OC)C[C@H]1c1ccncc1 | 656 s
Cc1[nH]nc(-c2ccc(S(=O)(=O)N3CCOCC3)o2)c1C | 707 s
Cc1nc([N+](=O)[O-])cn1-c1nc2ccccn2c1[N+](=O)[O-] | 753 s
COc1cc(/C=C(\OC(C)=O)c2ccc3c(c2)OCO3)cc(OC)c1OC | 924 s
O=C(c1ccc(N2CCNC(c3ccccc3)C2)nc1)N1CCSCC1 (stereo not drawn) | 606 s
CC(C)NC(=O)c1ccc(OCC2CCN(C(=O)c3ccc(C#N)cc3)CC2)cc1 | 811 s
COc1ccccc1N1CCN(C(=O)C2CCN(S(=O)(=O)c3cn(C(C)C)cn3)CC2)CC1 | 716 s
O=C(O)c1cn(-c2cccc(Br)c2)nn1 | 723 s
Cc1ccc(-c2nc(N3CCOCC3)ncc2C(=O)O)cc1 | 770 s
O=C(CSc1nnc2c(=O)n(-c3ccccc3)ccn12)c1ccc(Br)cc1 | 881 s
O=C(NCc1csc(-c2ccccc2)n1)C1CCN(C(=O)Nc2ccccc2Cl)CC1 | 822 s
Cc1ccc(/C=C/c2nc(-c3ccc4oc(C)nc4c3)no2)o1 | 1130 s
O=C(N[C@H]1C[C@@H]2C[C@H]1N(C(=O)c1cccc(Cl)c1)C2)c1ccccc1 | 748 s
O=C(c1ccc2c(c1)OCO2)N1CCN(c2nc(CN3CCCCC3)cs2)CC1 | 620 s
Cc1cccc(N(C)C(=O)C2CCCN2S(=O)(=O)c2cc3c(cc2C)NC(=O)CO3)c1 (stereo not drawn) | 776 s

Now from value to compound:

RP-LC retention time | SMILES
1270 s | O=C(Nc1ccccc1Cl)c1c(O)c2cccnc2n(-c2ccc(F)cc2)c1=O
612 s | CC(C)=C1C(=O)Nc2ccc(S(=O)(=O)N3CCN(c4ccccn4)CC3)cc21
760 s | Cc1nc(-c2noc(-c3ccncc3)n2)cn1CC(=O)Nc1cccc(Cl)c1
637 s | CCN(CC)CCNC(=O)c1cc(S(=O)(=O)N2CCCCC2)ccc1Cl
1140 s | O=c1c2sccc2n(Cc2nc(-c3ccc(F)cc3)no2)c(=O)n1CCc1ccccc1
970 s | Cc1c(Cl)cccc1S(=O)(=O)NC1CCN(c2ccccc2)C1=O (stereo not drawn)
908 s | CSc1ncccc1C(=O)Nc1cccc(OCc2nnc(-c3ccccc3)o2)c1
890 s | Cc1ccc(C(=O)Nc2ccc(-c3nc(Cn4cccn4)c(C)o3)cc2)s1
897 s | CCCCOc1ccc(-c2csc(NC(=O)c3cc4cccc(OC)c4oc3=O)n2)cc1
1140 s | CCOc1ccc2cccc(NC(=O)c3ccc(S(=O)(=O)N(C)C)cc3)c2n1
1040 s | CC1CCN(S(=O)(=O)c2ccc3nn(Cc4cc(F)cc(F)c4)c(=O)n3c2)CC1
850 s | O=C(Nc1ccc(N2CCN(C3CCCCC3)C2=O)nc1)c1ccccc1F
839 s | CN(CCc1noc(-c2ccc(F)cc2)n1)C(=O)NCc1ccccc1
804 s | COCCCNc1ncc(C(=O)O)c(-c2ccccc2)n1
573 s | CCc1ccc(-c2cn3cc(C(=O)NCCN4CCN(C)CC4)ccc3n2)cc1
770 s | COc1ccc(-c2c(C)noc2NC(C)=O)cc1S(=O)(=O)Nc1ccc(F)cc1C
886 s | O=C(Nc1ccc(N2CCN(C3CCCCC3)C2=O)nc1)c1ccc(F)c(F)c1
689 s | Clc1ccc(-c2ccc(CNCc3ccccn3)o2)cc1
884 s | CCCn1cc(CCNS(=O)(=O)c2ccc(F)c(F)c2)c2cccnc21
826 s | CCC(C(=O)NCCOC)n1nc(C)c2sc3ccccc3c2c1=O (stereo not drawn)

RP-LC retention time | SMILES
993 s | CCn1c(=O)c2ccccc2n(Cc2nc(-c3ccc(OC)cc3)no2)c1=O
1000 s | CCCNc1nc(-c2ccc(Br)cc2)cs1
625 s | Cc1ccc(S(=O)(=O)Nc2ccncc2)c(C)c1N(C)S(=O)(=O)c1ccc(F)cc1
978 s | O=C(Nc1cccc(Cl)c1)Nc1nc(CC(=O)N2CCc3ccccc32)cs1
838 s | O=C(NCc1ccc(F)cc1)C1CCCN(S(=O)(=O)c2c[nH]c(C(=O)N3CCCCCC3)c2)C1 (stereo not drawn)
760 s | CCn1cnc(S(=O)(=O)N2CCCC(C(=O)Nc3cccc(F)c3)C2)c1 (stereo not drawn)
666 s | CC(=O)Nc1ccc(S(=O)(=O)N2CCC(C(=O)N3CCN(c4ncccn4)CC3)CC2)cc1
1000 s | CCc1ccc(S(=O)(=O)N2CCC(C(=O)NCCc3csc(-c4cccs4)n3)CC2)cc1
819 s | COC(=O)C1=CN(c2cc(OC)ccc2OC)c2cc(F)ccc2S1(=O)=O
692 s | CCn1c(CNC(=O)C2CCC2)nc2c1CN(S(=O)(=O)c1ccc(Cl)cc1)CC2
1170 s | Fc1cccc(-c2noc(-c3nnn4c3COC(c3ccc(Cl)cc3)C4)n2)c1 (stereo not drawn)
817 s | O=C(Nc1ncnc2c1CCC2)c1ccc(S(=O)(=O)N2CCCc3ccccc32)cc1
663 s | COc1ccc(NC(=O)C2CCN(S(=O)(=O)c3ccc4[nH]c(=O)ccc4c3)CC2)c(OC)c1
687 s | Cc1cn(C)c(CC(=O)NCc2ccc3c(c2)OCO3)c1C(=O)O
1120 s | CCOc1ccc(S(=O)(=O)N2CCC(c3noc(-c4ccc(F)cc4)n3)CC2)cc1
867 s | Cc1ccc(NC(=O)C2CC(=O)N(CCc3c[nH]c4ccc(F)cc34)C2)cc1C (stereo not drawn)
881 s | COc1ccc(OC)c(S(=O)(=O)N2CCC(n3cnc4ccc(C)cc4c3=O)CC2)c1
661 s | CC1CCCN(CCCNC(=O)c2cc(S(=O)(=O)N3CCCCC3)ccc2Cl)C1 (stereo not drawn)
747 s | Cc1ccc(NC(=O)Nc2ccc3nncn3c2)c(C)c1
818 s | O=C(Nc1cccc(Br)c1)NC1CCN(c2ccc(F)cc2)C1=O (stereo not drawn)
